In the supplement of paper PMC10627819:

What was measured:
Assay in all cases: fitness (endpoint OD595 vs no drug) (fraction); higher = more growth
[1] = tested on: S. aureus Newman
How it was run: (§1)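 Growth medium was TSB, LB Lennox or CY, and plates were kept at 37 °C. Inoculation was at OD595 0.01 in 384-well plates, at 30 µl per well or 55 µl for S. pneumoniae. OD595 was monitored every 30 min for 14 h and background-subtracted using the first reading. Fitness is the optical density on entering stationary phase divided by the robust mean of no-drug controls, with values capped at 1.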

[2] = tested on: B. subtilis 168
How it was run: as §1

[3] = tested on: S. pneumoniae D39V
How it was run: as §1
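Also: OD595 on entry to stationary phase over no-drug wells; at most 1.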

N[C@@H]1CONC1=O [Cycloserine D] + C/C(=C\C(=O)OCCCCCCCCC(=O)O)C[C@@H]1OC[C@H](C[C@@H]2O[C@H]2[C@@H](C)[C@H](C)O)[C@@H](O)[C@H]1O [Pseudomonic acid]
fitness, [1], one replicate
Conditions	first compound 0.375 µg/mL	first compound 0.75 µg/mL	first compound 1.5 µg/mL
partner 0.0313 µg/mL	0.0489	0.0331	0.0484
partner 0.0625 µg/mL	0.0296	0.0319	0.0149
partner 0.125 µg/mL	0.0371	0.0384	0.031

N[C@@H]1CONC1=O [Cycloserine D] + CO[C@@H]1[C@@H](OC(N)=O)[C@@H](O)[C@H](Oc2ccc3c(O)c(NC(=O)c4ccc(O)c(CC=C(C)C)c4)c(=O)oc3c2C)OC1(C)C [Novobiocin]
fitness, [2]
Conditions	first compound 0.125 µg/mL	first compound 0.25 µg/mL	first compound 0.5 µg/mL
partner 0.0125 µg/mL	0.987	0.943	0.922
partner 0.025 µg/mL	0.957	0.957	0.913
partner 0.05 µg/mL	≥ 1	0.994	0.992

fitness, [2], one replicate
Conditions	partner 0.1 µg/mL	partner 0.125 µg/mL	partner 0.2 µg/mL	partner 0.25 µg/mL	partner 0.5 µg/mL
first compound 0.125 µg/mL	0.906	0.871	0.921	0.908	0.605
first compound 0.25 µg/mL	0.995	0.962	≥ 1	0.852	0.632
first compound 0.5 µg/mL	≥ 1	0.967	0.952	0.958	0.544

O=C(O[C@@H]1Cc2c(O)cc(O)cc2O[C@@H]1c1cc(O)c(O)c(O)c1)c1cc(O)c(O)c(O)c1 [EGCG] + CC1(C)S[C@@H]2[C@H](NC(=O)Cc3ccccc3)C(=O)N2[C@H]1C(=O)O [Penicillin G]
fitness, [1]
Conditions	first compound 12.5 µg/mL	first compound 25 µg/mL	first compound 50 µg/mL
partner 0.0195 µg/mL	0.738	0.623	–
partner 0.039 µg/mL	0.743	0.739	0.594
partner 0.078 µg/mL	0.741	0.729	0.644

O=C(N[C@H](CO)[C@H](O)c1ccc([N+](=O)[O-])cc1)C(Cl)Cl [Chloramphenicol] + O=C(O)[C@H]1/C(=C/CO)O[C@@H]2CC(=O)N21 [Clavulanic acid]
fitness, [1], one replicate
Conditions	first compound 0.75 µg/mL	first compound 1.5 µg/mL	first compound 3 µg/mL
partner 0.03125 µg/mL	0.891	0.7	0.0864
partner 0.0625 µg/mL	0.889	0.708	–
partner 0.125 µg/mL	0.85	0.494	0.11

O=C(N[C@H](CO)[C@H](O)c1ccc([N+](=O)[O-])cc1)C(Cl)Cl [Chloramphenicol] + CC1(C)S[C@@H]2[C@H](NC(=O)Cc3ccccc3)C(=O)N2[C@H]1C(=O)O [Penicillin G]
fitness, [1]
Conditions	first compound 0.75 µg/mL	first compound 1.5 µg/mL	first compound 3 µg/mL
partner 0.0195 µg/mL	0.744	0.494	0.187
partner 0.039 µg/mL	0.742	0.475	0.173
partner 0.078 µg/mL	0.72	0.477	0.181

C/C(=C\C(=O)OCCCCCCCCC(=O)O)C[C@@H]1OC[C@H](C[C@@H]2O[C@H]2[C@@H](C)[C@H](C)O)[C@@H](O)[C@H]1O [Pseudomonic acid] + CCN(CC)CCOC(=O)c1ccc(N)cc1 [Procaine]
fitness, [1], one replicate
Conditions	first compound 0.0313 µg/mL	first compound 0.0625 µg/mL	first compound 0.125 µg/mL
partner 85.5 µg/mL	0.0858	0.046	0.0525
partner 171 µg/mL	0.0636	0.045	0.0572
partner 342 µg/mL	0.0723	0.0522	0.0551

fitness, [3]
Conditions	first compound 0.03 µg/mL	first compound 0.06 µg/mL	first compound 0.12 µg/mL
partner 85.5 µg/mL	0.867	0.69	0.587
partner 171 µg/mL	0.92	0.762	0.581
partner 342 µg/mL	0.878	0.716	0.583

C/C(=C\C(=O)OCCCCCCCCC(=O)O)C[C@@H]1OC[C@H](C[C@@H]2O[C@H]2[C@@H](C)[C@H](C)O)[C@@H](O)[C@H]1O [Pseudomonic acid] + CCC(C)C1C(=O)NC(=C)C(=O)NC(C(=O)NC(CSCC(C(=O)N1)NC(=O)/C(=C/C)/NC(=O)C(C(C)CC)N)C(=O)NC2C(SCC(NC(=O)CNC(=O)C3CCCN3C2=O)C(=O)NC(CCCCN)C(=O)NC4C(SCC(NC(=O)CNC(=O)C(NC(=O)C(NC(=O)C(NC(=O)CNC4=O)C)CC(C)C)CCSC)C(=O)NC(CC(=O)N)C(=O)NC(CCSC)C(=O)NC(CCCCN)C(=O)NC5C(SCC6C(=O)NC(C(=O)NC(CSC(C(C(=O)N6)NC(=O)C(NC5=O)C)C)C(=O)NC(CO)C(=O)NC(C(C)CC)C(=O)NC(CC7=CN=CN7)C(=O)NC(C(C)C)C(=O)NC(=C)C(=O)NC(CCCCN)C(=O)O)CC8=CN=CN8)C)C)C)CC(C)C [Nisin]
fitness, [3], main component drawn
Conditions	partner 0.4275 µg/mL	partner 0.855 µg/mL	partner 1.6 µg/mL	partner 1.71 µg/mL	partner 3.2 µg/mL	partner 6.4 µg/mL
first compound 0.03 µg/mL	0.935	0.928	–	0.0945	0.0435	0.0142
first compound 0.06 µg/mL	0.858	0.81	–	0.0658	0.0566	0.0188
first compound 0.12 µg/mL	0.51	0.21	0.174	0.0732	0.0384	0.0513

N[C@@H]1CONC1=O [Cycloserine D] + C[C@H]1c2cccc(O)c2C(=O)C2=C(O)[C@]3(O)C(=O)C(C(N)=O)=C(O)[C@@H](N(C)C)[C@@H]3[C@@H](O)[C@@H]21 [Doxycycline]
fitness, [2]
Conditions	first compound 0.125 µg/mL	first compound 0.25 µg/mL	first compound 0.5 µg/mL
partner 0.02 µg/mL	0.909	0.903	0.898
partner 0.04 µg/mL	0.738	0.732	0.709
